Results published in ChEMBL document CHEMBL1949642 (Bioorg Med Chem Lett, 2012).
Converted amounts (≈) assume the structure as drawn. One block for each molecule: values may come before it. The source made the active and inactive calls. The rule behind the calls is not given here.

Assays:
[1] = target: T1, C-C chemokine receptor type 5 (Homo sapiens, UniProt P51681); assay: Displacement of [125I]MIP-1alpha from human recombinant CCR5 expressed in CHO cells; format: cell-based
Target sequence in this assay (P51681 whole entry): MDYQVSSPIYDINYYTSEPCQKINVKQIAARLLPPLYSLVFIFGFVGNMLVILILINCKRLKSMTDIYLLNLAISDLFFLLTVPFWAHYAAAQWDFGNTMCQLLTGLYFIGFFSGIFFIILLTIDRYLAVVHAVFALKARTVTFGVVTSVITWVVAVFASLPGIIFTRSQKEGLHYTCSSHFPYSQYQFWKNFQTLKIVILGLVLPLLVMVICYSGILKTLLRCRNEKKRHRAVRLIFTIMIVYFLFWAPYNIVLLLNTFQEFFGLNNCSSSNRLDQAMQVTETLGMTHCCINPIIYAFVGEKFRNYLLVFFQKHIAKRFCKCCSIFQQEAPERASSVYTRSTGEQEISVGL

[2] = Intrinsic clearance in human liver microsomes; settings: liver microsomes
[3] = Lipophilicity, log D of the compound at pH 7.4; settings: buffer
[4] = target: Voltage-gated inwardly rectifying potassium channel KCNH2 (Homo sapiens, UniProt Q12809); assay: Displacement of 3,7-Bis[2-(4-nitro[3,5-3H]phenyl)ethyl]-3,7-diazabicyclo[3.3.1]nonane from human ERG expressed in HEK cells after 3 hrs
Voltage-gated inwardly rectifying potassium channel KCNH2, sequence (Q12809 whole entry): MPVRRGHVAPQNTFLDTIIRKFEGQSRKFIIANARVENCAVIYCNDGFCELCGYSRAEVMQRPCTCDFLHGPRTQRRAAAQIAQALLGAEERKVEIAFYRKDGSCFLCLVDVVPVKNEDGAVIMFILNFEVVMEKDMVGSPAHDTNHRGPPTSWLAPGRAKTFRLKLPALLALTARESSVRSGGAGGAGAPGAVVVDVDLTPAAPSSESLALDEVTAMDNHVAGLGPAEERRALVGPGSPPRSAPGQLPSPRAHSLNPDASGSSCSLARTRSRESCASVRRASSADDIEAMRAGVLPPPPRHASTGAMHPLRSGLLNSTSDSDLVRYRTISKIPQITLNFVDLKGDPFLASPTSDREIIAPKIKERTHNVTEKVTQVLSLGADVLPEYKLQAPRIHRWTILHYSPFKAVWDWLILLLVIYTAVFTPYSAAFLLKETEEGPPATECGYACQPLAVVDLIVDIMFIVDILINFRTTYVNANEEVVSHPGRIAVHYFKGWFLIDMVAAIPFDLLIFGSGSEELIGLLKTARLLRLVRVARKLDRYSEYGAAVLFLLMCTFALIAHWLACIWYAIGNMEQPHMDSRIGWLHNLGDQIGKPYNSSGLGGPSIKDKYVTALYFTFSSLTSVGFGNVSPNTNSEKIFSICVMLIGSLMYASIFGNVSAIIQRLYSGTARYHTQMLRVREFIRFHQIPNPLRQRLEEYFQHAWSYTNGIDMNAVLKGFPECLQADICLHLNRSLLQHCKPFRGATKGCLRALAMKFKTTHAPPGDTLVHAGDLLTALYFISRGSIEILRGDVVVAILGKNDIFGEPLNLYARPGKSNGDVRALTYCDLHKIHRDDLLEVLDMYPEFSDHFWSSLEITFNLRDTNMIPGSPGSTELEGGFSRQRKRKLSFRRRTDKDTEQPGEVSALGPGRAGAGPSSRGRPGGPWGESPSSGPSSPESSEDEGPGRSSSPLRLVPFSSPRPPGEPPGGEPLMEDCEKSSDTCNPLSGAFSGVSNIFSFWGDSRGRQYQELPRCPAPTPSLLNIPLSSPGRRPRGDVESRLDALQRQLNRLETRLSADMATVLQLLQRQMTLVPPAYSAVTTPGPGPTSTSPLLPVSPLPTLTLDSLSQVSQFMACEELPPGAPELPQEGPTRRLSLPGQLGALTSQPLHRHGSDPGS

[5] = target: T1, C-C chemokine receptor type 5; assay: Antagonist activity at CCR5 in human whole blood assessed as inhibition of MIP-1beta-induced receptor internalization; format: functional, tissue-based
Target sequence in this assay (P51681 whole entry, looked up): as the sequence (P51681 whole entry) above

[6] = Half life in female dog at 1 to 2 mg/kg, iv; format: ADME, organism-based, Canis lupus familiaris; design: dose 1-2 mg/kg, route intravenous; settings: in vivo
[7] = species: Homo sapiens; assay: Antiarthritis activity in rheumatoid arthritis patient at 150 mg; format: functional, organism-based
[8] = Dissociation constant, pKa of the compound; format: physicochemical
[9] = target: Cytochrome P450 2C19 (Homo sapiens, UniProt P33261); assay: Inhibition of CYP2C19; format: ADME
Cytochrome P450 2C19, sequence (P33261 whole entry): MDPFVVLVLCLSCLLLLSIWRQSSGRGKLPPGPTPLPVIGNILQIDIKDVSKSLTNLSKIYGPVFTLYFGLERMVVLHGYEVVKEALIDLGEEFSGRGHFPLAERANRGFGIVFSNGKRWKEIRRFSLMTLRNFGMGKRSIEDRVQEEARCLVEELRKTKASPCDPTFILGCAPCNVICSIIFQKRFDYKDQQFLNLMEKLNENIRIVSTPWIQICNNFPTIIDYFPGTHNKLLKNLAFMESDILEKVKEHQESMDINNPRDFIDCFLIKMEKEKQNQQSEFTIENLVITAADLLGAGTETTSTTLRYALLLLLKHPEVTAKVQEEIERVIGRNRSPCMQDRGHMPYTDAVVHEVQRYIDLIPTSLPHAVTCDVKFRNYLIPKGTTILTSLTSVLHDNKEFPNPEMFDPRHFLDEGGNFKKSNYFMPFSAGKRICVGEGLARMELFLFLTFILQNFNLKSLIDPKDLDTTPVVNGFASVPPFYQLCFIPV

[10] = Oral bioavailability in rat at 2 to 5 mg/kg; format: ADME, organism-based; settings: in vivo
[11] = Apparent permeability from basal to apical side of human Caco2 cells at 100 uM; format: ADME, cell-based; settings: Caco-2
[12] = Apparent permeability from basal to apical side of human Caco2 cells at 10 uM; format: ADME, cell-based; settings: Caco-2
[13] = Volume of distribution at steady state in female dog at 1 to 2 mg/kg, iv; format: ADME, organism-based, Canis lupus familiaris; design: dose 1-2 mg/kg, route intravenous; settings: in vivo, read-out: Vdss
[14] = target: Cytochrome P450 2D6 (Homo sapiens, UniProt P10635); assay: Inhibition of CYP2D6; format: ADME
Cytochrome P450 2D6, sequence (P10635 whole entry): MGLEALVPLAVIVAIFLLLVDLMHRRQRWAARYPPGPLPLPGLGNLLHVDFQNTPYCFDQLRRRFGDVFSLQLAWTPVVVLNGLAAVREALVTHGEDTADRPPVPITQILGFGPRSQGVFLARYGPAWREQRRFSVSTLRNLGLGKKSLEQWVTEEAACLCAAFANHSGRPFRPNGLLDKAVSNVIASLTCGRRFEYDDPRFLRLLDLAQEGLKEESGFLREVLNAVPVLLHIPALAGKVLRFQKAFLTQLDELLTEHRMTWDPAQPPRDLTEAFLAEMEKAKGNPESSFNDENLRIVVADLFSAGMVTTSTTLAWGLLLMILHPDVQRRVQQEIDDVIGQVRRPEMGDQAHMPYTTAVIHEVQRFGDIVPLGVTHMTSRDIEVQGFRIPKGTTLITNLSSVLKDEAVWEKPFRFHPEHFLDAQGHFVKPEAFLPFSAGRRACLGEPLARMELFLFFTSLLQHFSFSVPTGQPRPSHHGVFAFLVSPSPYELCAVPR

[15] = Aqueous solubility of the compound at pH 7.4; format: physicochemical; settings: buffer
[16] = Oral bioavailability in female dog at 2 to 5 mg/kg; format: ADME, organism-based, Canis lupus familiaris; settings: in vivo
[17] = Volume of distribution at steady state in male dog at 1 to 2 mg/kg, iv; format: ADME, organism-based, Canis lupus familiaris; design: dose 1-2 mg/kg, route intravenous; settings: in vivo, read-out: Vdss
[18] = Clearance in male dog at 1 to 2 mg/kg, iv; format: ADME, organism-based, Canis lupus familiaris; design: dose 1-2 mg/kg, route intravenous; settings: in vivo
[19] = Oral bioavailability in male dog at 2 to 5 mg/kg; format: ADME, organism-based, Canis lupus familiaris; settings: in vivo
[20] = Clearance in female dog at 1 to 2 mg/kg, iv; format: ADME, organism-based, Canis lupus familiaris; design: dose 1-2 mg/kg, route intravenous; settings: in vivo
[21] = target: Cytochrome P450 2C9 (Homo sapiens, UniProt P11712); assay: Inhibition of CYP2C9; format: ADME
Cytochrome P450 2C9, sequence (P11712 whole entry): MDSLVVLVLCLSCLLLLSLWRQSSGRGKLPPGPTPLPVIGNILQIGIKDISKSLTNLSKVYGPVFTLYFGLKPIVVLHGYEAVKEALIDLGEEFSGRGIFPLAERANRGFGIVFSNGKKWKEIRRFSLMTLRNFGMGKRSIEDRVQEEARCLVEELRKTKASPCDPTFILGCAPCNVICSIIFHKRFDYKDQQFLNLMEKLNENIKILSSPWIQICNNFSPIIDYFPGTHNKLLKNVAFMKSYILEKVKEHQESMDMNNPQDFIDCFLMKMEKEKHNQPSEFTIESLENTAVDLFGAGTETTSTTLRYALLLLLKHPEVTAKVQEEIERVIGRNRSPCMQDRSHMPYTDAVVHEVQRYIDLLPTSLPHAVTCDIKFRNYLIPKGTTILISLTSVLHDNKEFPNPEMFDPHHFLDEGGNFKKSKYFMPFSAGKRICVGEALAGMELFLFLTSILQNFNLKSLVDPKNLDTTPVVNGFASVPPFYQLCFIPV

[22] = Apparent permeability from apical to basal side of human Caco2 cells at 10 uM; format: ADME, cell-based; settings: Caco-2
[23] = Half life in male dog at 1 to 2 mg/kg, iv; format: ADME, organism-based, Canis lupus familiaris; design: dose 1-2 mg/kg, route intravenous; settings: in vivo
[24] = target: Cytochrome P450 3A4 (Homo sapiens, UniProt P08684); assay: Inhibition of CYP3A4; format: ADME
Cytochrome P450 3A4, sequence (P08684 whole entry): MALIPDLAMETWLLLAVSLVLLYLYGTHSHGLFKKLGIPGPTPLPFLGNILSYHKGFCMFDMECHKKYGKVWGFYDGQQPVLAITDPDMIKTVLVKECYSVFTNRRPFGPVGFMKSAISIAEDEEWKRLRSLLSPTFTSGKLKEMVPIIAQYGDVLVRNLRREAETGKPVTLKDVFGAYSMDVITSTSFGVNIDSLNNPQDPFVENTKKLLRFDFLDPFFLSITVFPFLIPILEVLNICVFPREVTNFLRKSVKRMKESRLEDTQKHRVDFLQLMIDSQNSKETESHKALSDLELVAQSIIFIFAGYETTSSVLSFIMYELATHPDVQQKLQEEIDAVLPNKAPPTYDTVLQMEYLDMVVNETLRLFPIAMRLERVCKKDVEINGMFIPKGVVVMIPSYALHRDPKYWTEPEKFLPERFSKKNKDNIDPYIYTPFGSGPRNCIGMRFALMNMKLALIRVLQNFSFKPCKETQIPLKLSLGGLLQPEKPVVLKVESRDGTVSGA

[25] = Plasma protein binding in human; format: ADME, cell-free; settings: read-out: PPB (converted)
[26] = target: T2, Cytochrome P450 1A1 (Homo sapiens, UniProt P04798); assay: Inhibition of CYP1A1; format: ADME
T2 sequence (P04798 whole entry): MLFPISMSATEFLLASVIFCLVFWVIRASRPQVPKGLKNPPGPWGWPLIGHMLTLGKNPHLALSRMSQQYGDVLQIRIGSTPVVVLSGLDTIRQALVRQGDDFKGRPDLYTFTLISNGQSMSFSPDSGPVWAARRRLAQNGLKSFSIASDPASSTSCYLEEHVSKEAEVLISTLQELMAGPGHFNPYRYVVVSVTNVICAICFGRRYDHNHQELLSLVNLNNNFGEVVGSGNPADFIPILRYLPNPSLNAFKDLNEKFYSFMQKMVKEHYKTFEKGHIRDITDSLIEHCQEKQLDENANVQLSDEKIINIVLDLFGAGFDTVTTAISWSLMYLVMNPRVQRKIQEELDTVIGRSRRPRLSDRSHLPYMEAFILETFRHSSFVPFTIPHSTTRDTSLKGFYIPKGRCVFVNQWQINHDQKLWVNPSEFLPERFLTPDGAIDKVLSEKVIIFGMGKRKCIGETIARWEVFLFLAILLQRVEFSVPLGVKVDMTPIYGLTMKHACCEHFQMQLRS

[27] = Apparent permeability from apical to basal side of human Caco2 cells at 100 uM; format: ADME, cell-based; settings: Caco-2
[28] = Clearance in rat at 1 to 2 mg/kg, iv; format: ADME, organism-based; design: dose 1-2 mg/kg, route intravenous; settings: in vivo
[29] = Fraction unbound in human plasma; format: ADME, cell-free
[30] = Half life in rat at 1 to 2 mg/kg, iv; format: ADME, organism-based; design: dose 1-2 mg/kg, route intravenous; settings: in vivo
[31] = Volume of distribution at steady state in rat at 1 to 2 mg/kg, iv; format: ADME, organism-based; design: dose 1-2 mg/kg, route intravenous; settings: in vivo, read-out: Vdss

SMILES: CCN(C(=O)Cc1ccc(S(C)(=O)=O)cc1)C1CCN(CCC(c2ccccc2)C2CCN(C)CC2)CC1 (racemic)
- IC50 [1]: 0.126 µM
- logD [3]: 1

SMILES: CCN(C(=O)Cc1ccc(S(C)(=O)=O)cc1)C1CCN(CCC(c2ccccc2)C2CCN(C(C)=O)CC2)CC1 (racemic)
- IC50 [1]: 0.037 µM
- logD [3]: 1.4

SMILES: CCN(C(=O)Cc1ccc(S(C)(=O)=O)cc1)C1CCN(CC[C@H](c2ccc(S(C)(=O)=O)cc2)c2cc(F)cc(F)c2)CC1
- A2 [5]: 1.1 nM
- microsomal CLint [2]: 8 µL/min/mg

SMILES: CCN(C(=O)Cc1ccc(S(C)(=O)=O)cc1)C1CCN(CCC(c2ccccc2)N2CCC(C)CC2)CC1 (racemic)
- IC50 [1]: 0.339 µM
- logD [3]: 2

SMILES: CCN(C(=O)Cc1ccc(S(C)(=O)=O)cc1)C1CCN(CC[C@@H](c2ccccc2)N2CCN(S(=O)(=O)CC(F)(F)F)CC2)CC1
- IC50 [1]: 0.0089 µM
- microsomal CLint [2]: 47 µL/min/mg
- IC50 [4]: 5.8 µM
- logD [3]: 1.8

SMILES: CCN(C(=O)Cc1ccc(S(C)(=O)=O)cc1)C1CCN(CCC(c2ccccc2)N2CCC(C(C)=O)CC2)CC1 (racemic)
- IC50 [1]: 0.083 µM
- microsomal CLint [2]: 21 µL/min/mg
- logD [3]: 0.9

SMILES: CCN(C(=O)Cc1ccc(S(C)(=O)=O)cc1)C1CCN(CCC(c2ccccc2)N2CCN(C(C)=O)CC2)CC1 (racemic)
- IC50 [1]: 0.229 µM
- logD [3]: 0.9

Further lines, with some results ahead:

- IC50 [1]: 0.0089 µM
- microsomal CLint [2]: > 150 µL/min/mg
SMILES: CCN(C(=O)Cc1ccc(S(C)(=O)=O)cc1)C1CCN(CCC(c2ccccc2)C2CCN(Cc3ccccc3)CC2)CC1 (racemic)

- IC50 [1]: 0.0016 µM
- microsomal CLint [2]: 33 µL/min/mg
SMILES: CCN(C(=O)Cc1ccc(S(C)(=O)=O)cc1)C1CCN(CC[C@@H](c2ccccc2)N2CCN(S(=O)(=O)C(F)(F)F)CC2)CC1
- IC50 [4]: 3.2 µM

- IC50 [1]: 0.0011 µM
- microsomal CLint [2]: 31 µL/min/mg
- logD [3]: 1.1
SMILES: CCN(C(=O)Cc1ccc(S(C)(=O)=O)cc1)C1CCN(CC[C@@H](c2ccccc2)C2CCN(S(C)(=O)=O)CC2)CC1
- IC50 [4]: 25 µM

- IC50 [1]: 0.00026 µM
- half-life [6]: 3.8 h
- pKa [8]: 8.4
- IC50 [9]: > 50 µM
- A2 [5]: 0.76 nM
- microsomal CLint [2]: 18 µL/min/mg
- bioavailability [10]: 41%
- Papp B→A at 100 µM [11]: 110 nm/s
- Papp B→A at 10 µM [12]: 92 nm/s
- Vd [13]: 5.8 L/kg
- IC50 [14]: 23 µM
- solubility [15]: 2700 µM (≈ 1730 µg/mL)
- bioavailability [16]: 51%
- Vd [17]: 4.5 L/kg
- clearance [18]: 0.9 L/h/kg
- bioavailability [19]: 46%
- clearance [20]: 1.32 L/h/kg
- IC50 [21]: > 50 µM
- Papp A→B at 10 µM [22]: 7 nm/s
- half-life [23]: 3.9 h
- IC50 [24]: 9 µM
- fraction unbound [25]: 0.08
- IC50 [26]: > 50 µM
- Papp A→B at 100 µM [27]: 14 nm/s
- clearance [28]: 2.28 L/h/kg
- fraction unbound [29]: 0.08
- logD [3]: 1.5
- half-life [30]: 2.1 h
- Vd [31]: 5 L/kg
SMILES: CCN(C(=O)Cc1ccc(S(C)(=O)=O)cc1)C1CCN(CC[C@@H](c2cc(F)cc(F)c2)C2CCN(S(C)(=O)=O)CC2)CC1 [AZD5672]
- Activity [7]: inactive

- IC50 [1]: 0.005 µM
- microsomal CLint [2]: 26 µL/min/mg
- logD [3]: 2.7
SMILES: CCN(C(=O)Cc1ccc(S(C)(=O)=O)cc1)C1CCN(CCC(c2ccccc2)N2CCN(c3ccccc3)CC2)CC1 (racemic)
- IC50 [4]: 13 µM

- IC50 [1]: < 0.0001 µM
- logD [3]: 2.6
SMILES: CCN(C(=O)Cc1ccc(S(C)(=O)=O)cc1)C1CCN(CC[C@@H](c2cc(Cl)cc(Cl)c2)C2CCN(S(C)(=O)=O)CC2)CC1
- IC50 [4]: 6.5 µM

- IC50 [1]: 0.00055 µM
- microsomal CLint [2]: 32 µL/min/mg
- logD [3]: 1.8
SMILES: CCN(C(=O)Cc1ccc(S(C)(=O)=O)cc1)C1CCN(CC[C@@H](c2cccc(Cl)c2)C2CCN(S(C)(=O)=O)CC2)CC1
- IC50 [4]: 7.9 µM

- IC50 [1]: 0.0054 µM
- microsomal CLint [2]: 28 µL/min/mg
- logD [3]: 2.2
SMILES: CCN(C(=O)Cc1ccc(S(C)(=O)=O)cc1)C1CCN(CCC(c2ccccc2)C2CCN(S(=O)(=O)CC(F)(F)F)CC2)CC1 (stereo not given)
